Key:
Assay type in all cases: in vivo, C57BL/6 mice
psoriasis model mice [1] = assay: PASI score in imiquimod-induced psoriasis model mice (Example 1)
Description: (§1) In order to induce psoriasis using imiquimod, a cream containing 5% imiquimod (Beselna Cream 5%, manufactured by Mochida Pharmaceutical Co., Ltd.) was used. Imiquimod is represented as IMQ in the drawings corresponding to the Examples of this application. A peptide consisting of amino acid residues 1-44 of the human-derived HMGB1 protein (SEQ ID NO: 1) was chemically synthesized by a solid-phase method. Hereinafter, the HMGB1 fragment peptide is referred to as the HMGB1 peptide (1-44) and is expressed as an abbreviation “1-44” in the drawings corresponding to the Examples.
(§2) C57BL/6 mice (7-week-old, female, body weight about 20 g) were prepared, and the hair on the back was removed. In order to induce psoriasis, the cream containing 5% imiquimod was applied to the dorsal skin of the mice at a dose of 1.25 g/animal/day (62.5 mg/animal/day as imiquimod) once a day for four days. In the following, the day when imiquimod was first applied is represented as “the 1st day of the start of imiquimod application (Day 1)”, and the next day onward is represented as “the Xth day from the start of imiquimod application (Day X)”. That is, the last day that imiquimod was applied was the 4th day from the start of imiquimod application (Day 4), and no application was performed on the 5th day from the start of imiquimod application (Day 5).
The psoriasis model mice produced as described above were divided into the HMGB1 peptide (1-44) administration group (n=3) and the control group (n=3). The test substance was administered by injecting an HMGB1 peptide (1-44) solution, which has been adjusted to a concentration of 1 μg/μl with saline as the vehicle, into the vein at a dose of 100 μl/day (5 mg/kg/day as the peptide dose) for three days from the 1st day of the start of imiquimod application (Day 1). […]
The degree of the symptoms of psoriasis on the dorsal skin of the mice was evaluated by the PASI score for five days from the 1st day of the start of imiquimod application. The PASI score was calculated by quantifying the degree of each of (a) erythema, (b) scaling (desquamation), and (c) thickening (infiltration) of skin using five stages, [no symptoms: 0 points, mild: 1 point, moderate: 2 points, severe: 3 points, and extremely severe: 4 points], and summing up the values of (a), (b), and (c) (minimum 0 points-maximum 12 points).
(a) The erythema score was determined by using the photographs of the back of mice shown in FIG. 1 as a criterion for each score and visually comparing them with the condition of the back of the mice to be evaluated. (b) The scaling score was determined by using the photographs of the back of mice shown in FIG. 2 as a criterion for each score and visually comparing them with the condition of the back of the mice to be evaluated. (c) The thickening score was determined as follows: Two measurement sites were determined on the back of the mice, the skin was pinched and its thickness was measured with a caliper, and the average value from the two sites was recorded daily as the skin thickness (mm). Quantification was carried out by giving 0 points when the value of skin thickness of each day relative to the skin thickness on the 1st day of the start of imiquimod application (before application) was less than 1.1, 1 point when the value was 1.1 or more to less than 1.3, 2 points when the value was 1.3 or more to less than 1.5, 3 points when the value was 1.5 or more to less than 1.7, and 4 points when the value was 1.7 or more.

[2] = tested on: inflammatory cytokines (IL-1β, IL-6, IL-17A, IL-17F, and IL-22); assay: Expression levels of inflammatory cytokines in dorsal skin by quantitative PCR (Example 2); settings: mRNA, Day 5, 5 mg/kg/day i.v. for three days, vs control group
Method: (§3) The drugs were prepared and the psoriasis model mice were produced in the same way as Example 1. The peptides were administered in the same way as Example 1 except that the number of mice was changed to six in both the HMGB1 peptide (1-44) administration group and the control group.
(§4) On the 5th day from the start of imiquimod application, the dorsal skin of the mice was collected, mRNA was extracted from the skin, and the expression levels of the inflammatory cytokines (IL-1β, IL-6, IL-17A, IL-17F, and IL-22), which are known to be involved in the pathogenesis of psoriasis, were analyzed by quantitative PCR.

psoriasis model mice [3] = assay: PASI score in imiquimod-induced psoriasis model mice (Example 2); settings: 5 mg/kg/day i.v. for three days, up to Day 4, vs control group (saline), n=6
Method: as §3
The degree of the symptoms of psoriasis on the dorsal skin of the mice was evaluated by the PASI score for four days from the 1st day of the start of imiquimod application. The PASI score was calculated in the same manner as Example 1.

[4] = tested on: inflammatory cytokines (IL-6, IL-17F, and IL-22); assay: Expression levels of inflammatory cytokines in dorsal skin by quantitative PCR (Example 1); settings: mRNA, Day 5, 5 mg/kg/day i.v. for three days, vs control group
Description: as §1, §2
The psoriasis model mice produced as described above were divided into the HMGB1 peptide (1-44) administration group (n=3) and the control group (n=3). […]
as §4, with “application (Day 5),” for “application,”, “(IL-6,” for “(IL-1β, IL-6, IL-17A,”

[5] = 5 mg/kg/day i.v. for three days, up to Day 5, vs control group

Q: How did the PASI score (psoriasis model mice [1]; 5 mg/kg/day i.v. for three days from Day 1, up to Day 5, vs control group (saline), n=3) turn out when “HMGB1 peptide (1-44): peptide consisting of amino acid residues 1-44 of the human-derived HMGB1 protein (SEQ ID NO: 1), chemically synthesized by a solid-phase method (MGKGDPKKPRGKMSSYAFFVQTCREEHKKKHPDASVNFSEFSKK)” was run?
A: lower than those in the control group

Q: What about the “PASI score on the 5th day from the start of imiquimod application” value (psoriasis model mice [1]; 5 mg/kg/day i.v. for three days, Day 5, vs control group (saline), p<0.05, 5 mg/kg/day) of the same substance?
A: significantly lower than that in the control group

Q: What about the erythema score (psoriasis model mice [1]; [5]) of the same substance?
A: lower than those in the control group

Q: And the scaling score (psoriasis model mice [1]; [5])?
A: lower than those in the control group

Q: What about the thickening score (psoriasis model mice [1]; [5]) of the same substance?
A: lower than those in the control group

Q: And the “expression level of IL-1β in the skin” value [2]?
A: lower than those in the control group

Q: What about the “expression level of IL-6 in the skin” value [2] of the same substance?
A: lower than those in the control group

Q: And the “expression level of IL-17A in the skin” value [2]?
A: lower than those in the control group

Q: And the “expression level of IL-17F in the skin” value [2]?
A: lower than those in the control group

Q: What about the “expression level of IL-22 in the skin” value [2] of the same substance?
A: lower than those in the control group

Q: What about the PASI score (psoriasis model mice [3]) of the same substance?
A: lower than that in the control group

Q: And the “expression level of IL-6 in the skin” value [4]?
A: lower than those in the control group

Q: And the “expression level of IL-17F in the skin” value [4]?
A: lower than those in the control group

Q: And the “expression level of IL-22 in the skin” value [4]?
A: lower than those in the control group
